In ChEMBL document CHEMBL3885881, “DrugMatrix”:

Species: Rattus norvegicus
Test: DrugMatrix - Regimen: Daily Repeat
Type: toxicity, organism-based, Sprague-Dawley
Set-up: regimen Daily Repeat, gender Male, age 6-8 weeks
Conditions: in vivo; for ABSOLUTE BASOPHIL / ABSOLUTE EOSINOPHIL / ABSOLUTE LYMPHOCYTE / ABSOLUTE MONOCYTE / ABSOLUTE SEGMENTED NEUTROPHIL / BASOPHIL / EOSINOPHIL / ERYTHROCYTE COUNT / HEMATOCRIT / HEMOGLOBIN / LEUKOCYTE COUNT / LYMPHOCYTE / MEAN CORPUSCULAR HEMOGLOBIN / MEAN CORPUSCULAR HEMOGLOBIN CONCENTRATION / MEAN CORPUSCULAR VOLUME / MONOCYTE / NEUTROPHIL / NUCLEATED RED BLOOD CELLS / PLATELET COUNT: tissue Blood; for ALANINE AMINOTRANSFERASE / ALBUMIN / ALKALINE PHOSPHATASE / ASPARTATE AMINOTRANSFERASE / BLOOD UREA NITROGEN / CARBON DIOXIDE / CHLORIDE / CHOLESTEROL / CREATINE PHOSPHOKINASE / CREATININE / GLUCOSE / LACTATE DEHYDROGENASE / LIPASE / PHOSPHORUS / POTASSIUM / SODIUM / TOTAL BILIRUBIN / TOTAL PROTEIN / URIC ACID: tissue Plasma
[1] = iv, 0.02 mg/kg, 72 h, dose level Low, time 3 day, vehicle 100 % SALINE
[2] = iv, 0.02 mg/kg, 120 h, dose level Low, time 5 day, vehicle 100 % SALINE
[3] = iv, 43 mg/kg, 72 h, dose level High, time 3 day, vehicle 100 % SALINE
[4] = iv, 43 mg/kg, 120 h, dose level High, time 5 day, vehicle 100 % SALINE
[5] = po, 0 mg/kg, 72 h, route oral GAVAGE, dose level Control, time 3 day, […]

CC(CCc1ccc(O)cc1)NCCc1ccc(O)c(O)c1 (configuration not stated) [DOBUTAMINE]
ABSOLUTE BASOPHIL [1]: 0 CELLS/uL
ABSOLUTE EOSINOPHIL [1]: 0 CELLS/uL
ABSOLUTE LYMPHOCYTE [1]: 16404 CELLS/uL
ABSOLUTE MONOCYTE [1]: 67.67 CELLS/uL
ABSOLUTE SEGMENTED NEUTROPHIL [1]: 1828.33 CELLS/uL
BASOPHIL [1]: 0%
EOSINOPHIL [1]: 0%
ERYTHROCYTE COUNT [1]: 5.5 x10E6/uL
HEMATOCRIT [1]: 35.6%
HEMOGLOBIN [1]: 13.9 G/DL
LEUKOCYTE COUNT [1]: 18.3 x10E3/uL
LYMPHOCYTE [1]: 89.67%
MEAN CORPUSCULAR HEMOGLOBIN [1]: 25.27 pg
MEAN CORPUSCULAR HEMOGLOBIN CONCENTRATION [1]: 39.03 G/DL
MEAN CORPUSCULAR VOLUME [1]: 64.67 fL
MONOCYTE [1]: 0.33%
NEUTROPHIL [1]: 10%
NUCLEATED RED BLOOD CELLS [1]: 0 /100WBC
PLATELET COUNT [1]: 1067.33 x10E3/uL
ALANINE AMINOTRANSFERASE [1]: 57.33 u/L
ALBUMIN [1]: 4.07 G/DL
ALKALINE PHOSPHATASE [1]: 391.33 u/L
ASPARTATE AMINOTRANSFERASE [1]: 107.33 u/L
BLOOD UREA NITROGEN [1]: 15.67 mg/dL
CARBON DIOXIDE [1]: 28 mmol/L
CHLORIDE [1]: 97.33 MEQ/L
CHOLESTEROL [1]: 78 mg/dL
CREATINE PHOSPHOKINASE [1]: 548.67 u/L
CREATININE [1]: 0.13 mg/dL
GLUCOSE [1]: 175.33 mg/dL
LACTATE DEHYDROGENASE [1]: 236 u/L
LIPASE [1]: 10.33 u/L
PHOSPHORUS [1]: 12.27 mg/dL
POTASSIUM [1]: 7.46 MEQ/L
SODIUM [1]: 141.6 MEQ/L
TOTAL BILIRUBIN [1]: 0.3 mg/dL
TOTAL PROTEIN [1]: 5.77 G/DL
URIC ACID [1]: 1.63 mg/dL
ABSOLUTE BASOPHIL [2]: 0 CELLS/uL
ABSOLUTE EOSINOPHIL [2]: 0 CELLS/uL
ABSOLUTE LYMPHOCYTE [2]: 19433.33 CELLS/uL
ABSOLUTE MONOCYTE [2]: 145.67 CELLS/uL
ABSOLUTE SEGMENTED NEUTROPHIL [2]: 1621 CELLS/uL
BASOPHIL [2]: 0%
EOSINOPHIL [2]: 0%
ERYTHROCYTE COUNT [2]: 5.54 x10E6/uL
HEMATOCRIT [2]: 35.5%
HEMOGLOBIN [2]: 14 G/DL
LEUKOCYTE COUNT [2]: 21.2 x10E3/uL
LYMPHOCYTE [2]: 92%
MEAN CORPUSCULAR HEMOGLOBIN [2]: 25.27 pg
MEAN CORPUSCULAR HEMOGLOBIN CONCENTRATION [2]: 39.47 G/DL
MEAN CORPUSCULAR VOLUME [2]: 64.03 fL
MONOCYTE [2]: 0.67%
NEUTROPHIL [2]: 7.33%
NUCLEATED RED BLOOD CELLS [2]: 0.33 /100WBC
PLATELET COUNT [2]: 1240.33 x10E3/uL
ALANINE AMINOTRANSFERASE [2]: 61 u/L
ALBUMIN [2]: 4.03 G/DL
ALKALINE PHOSPHATASE [2]: 438.67 u/L
ASPARTATE AMINOTRANSFERASE [2]: 84.33 u/L
BLOOD UREA NITROGEN [2]: 18.67 mg/dL
CARBON DIOXIDE [2]: 27.33 mmol/L
CHLORIDE [2]: 101.33 MEQ/L
CHOLESTEROL [2]: 73.33 mg/dL
CREATINE PHOSPHOKINASE [2]: 325 u/L
CREATININE [2]: 0.14 mg/dL
GLUCOSE [2]: 163 mg/dL
LACTATE DEHYDROGENASE [2]: 262.67 u/L
LIPASE [2]: 8.67 u/L
PHOSPHORUS [2]: 11.8 mg/dL
POTASSIUM [2]: 7.21 MEQ/L
SODIUM [2]: 140.77 MEQ/L
TOTAL BILIRUBIN [2]: 0.13 mg/dL
TOTAL PROTEIN [2]: 6.03 G/DL
URIC ACID [2]: 1.63 mg/dL
ABSOLUTE BASOPHIL [3]: 0 CELLS/uL
ABSOLUTE EOSINOPHIL [3]: 0 CELLS/uL
ABSOLUTE LYMPHOCYTE [3]: 11605 CELLS/uL
ABSOLUTE MONOCYTE [3]: 107 CELLS/uL
ABSOLUTE SEGMENTED NEUTROPHIL [3]: 488 CELLS/uL
BASOPHIL [3]: 0%
EOSINOPHIL [3]: 0%
ERYTHROCYTE COUNT [3]: 5.51 x10E6/uL
HEMATOCRIT [3]: 36.1%
HEMOGLOBIN [3]: 14.37 G/DL
LEUKOCYTE COUNT [3]: 12.2 x10E3/uL
LYMPHOCYTE [3]: 95%
MEAN CORPUSCULAR HEMOGLOBIN [3]: 26.1 pg
MEAN CORPUSCULAR HEMOGLOBIN CONCENTRATION [3]: 39.8 G/DL
MEAN CORPUSCULAR VOLUME [3]: 65.6 fL
MONOCYTE [3]: 1%
NEUTROPHIL [3]: 4%
NUCLEATED RED BLOOD CELLS [3]: 0 /100WBC
PLATELET COUNT [3]: 1374.33 x10E3/uL
ALANINE AMINOTRANSFERASE [3]: 75.67 u/L
ALBUMIN [3]: 4.37 G/DL
ALKALINE PHOSPHATASE [3]: 486 u/L
ASPARTATE AMINOTRANSFERASE [3]: 91 u/L
BLOOD UREA NITROGEN [3]: 18 mg/dL
CARBON DIOXIDE [3]: 29.67 mmol/L
CHLORIDE [3]: 98.33 MEQ/L
CHOLESTEROL [3]: 67.33 mg/dL
CREATINE PHOSPHOKINASE [3]: 326 u/L
CREATININE [3]: 0.19 mg/dL
GLUCOSE [3]: 190 mg/dL
LACTATE DEHYDROGENASE [3]: 114.33 u/L
LIPASE [3]: 10 u/L
PHOSPHORUS [3]: 13.03 mg/dL
POTASSIUM [3]: 6.8 MEQ/L
SODIUM [3]: 143.43 MEQ/L
TOTAL BILIRUBIN [3]: 0.17 mg/dL
TOTAL PROTEIN [3]: 6.27 G/DL
URIC ACID [3]: 2.17 mg/dL
ABSOLUTE BASOPHIL [4]: 0 CELLS/uL
ABSOLUTE EOSINOPHIL [4]: 0 CELLS/uL
ABSOLUTE LYMPHOCYTE [4]: 14283 CELLS/uL
ABSOLUTE MONOCYTE [4]: 137.67 CELLS/uL
ABSOLUTE SEGMENTED NEUTROPHIL [4]: 1112.67 CELLS/uL
BASOPHIL [4]: 0%
EOSINOPHIL [4]: 0%
ERYTHROCYTE COUNT [4]: 5.95 x10E6/uL
HEMATOCRIT [4]: 37.37%
HEMOGLOBIN [4]: 14.87 G/DL
LEUKOCYTE COUNT [4]: 15.53 x10E3/uL
LYMPHOCYTE [4]: 91.33%
MEAN CORPUSCULAR HEMOGLOBIN [4]: 25.13 pg
MEAN CORPUSCULAR HEMOGLOBIN CONCENTRATION [4]: 39.87 G/DL
MEAN CORPUSCULAR VOLUME [4]: 63.03 fL
MONOCYTE [4]: 1%
NEUTROPHIL [4]: 7.67%
NUCLEATED RED BLOOD CELLS [4]: 0 /100WBC
PLATELET COUNT [4]: 1213.67 x10E3/uL
ALANINE AMINOTRANSFERASE [4]: 48 u/L
ALBUMIN [4]: 4.33 G/DL
ALKALINE PHOSPHATASE [4]: 380 u/L
ASPARTATE AMINOTRANSFERASE [4]: 78.67 u/L
BLOOD UREA NITROGEN [4]: 19 mg/dL
CARBON DIOXIDE [4]: 29 mmol/L
CHLORIDE [4]: 100.67 MEQ/L
CHOLESTEROL [4]: 74.33 mg/dL
CREATINE PHOSPHOKINASE [4]: 277.67 u/L
CREATININE [4]: 0.24 mg/dL
GLUCOSE [4]: 147 mg/dL
LACTATE DEHYDROGENASE [4]: 321.33 u/L
LIPASE [4]: 9.33 u/L
PHOSPHORUS [4]: 10.77 mg/dL
POTASSIUM [4]: 6.44 MEQ/L
SODIUM [4]: 143.33 MEQ/L
TOTAL BILIRUBIN [4]: 0.2 mg/dL
TOTAL PROTEIN [4]: 6.2 G/DL
URIC ACID [4]: 1.5 mg/dL
ABSOLUTE BASOPHIL [5]: 50 cells/µL
ABSOLUTE EOSINOPHIL [5]: 43.3 cells/µL
ABSOLUTE LYMPHOCYTE [5]: 9670 cells/µL
ABSOLUTE MONOCYTE [5]: 210 cells/µL
BASOPHIL [5]: 0.4%
EOSINOPHIL [5]: 0.37%
ERYTHROCYTE COUNT [5]: 6.82 x10E6/uL
HEMATOCRIT [5]: 46.77%
HEMOGLOBIN [5]: 14.53 G/DL
LEUKOCYTE COUNT [5]: 11.77 x10E3/uL
LYMPHOCYTE [5]: 82.1%
MEAN CORPUSCULAR HEMOGLOBIN [5]: 21.33 pg
MEAN CORPUSCULAR HEMOGLOBIN CONCENTRATION [5]: 31.13 G/DL
MEAN CORPUSCULAR VOLUME [5]: 68.57 fL
MONOCYTE [5]: 1.8%
NEUTROPHIL [5]: 14.83%
PLATELET COUNT [5]: 1303.33 x10E3/uL
ALANINE AMINOTRANSFERASE [5]: 46.67 u/L
ALBUMIN [5]: 4.17 G/DL
ALKALINE PHOSPHATASE [5]: 530 u/L
ASPARTATE AMINOTRANSFERASE [5]: 81.33 u/L
BLOOD UREA NITROGEN [5]: 17.67 mg/dL
CARBON DIOXIDE [5]: 41.67 mmol/L
CHLORIDE [5]: 102 MEQ/L
CHOLESTEROL [5]: 70.33 mg/dL
CREATINE PHOSPHOKINASE [5]: 372.67 u/L
CREATININE [5]: 0.5 mg/dL
GLUCOSE [5]: 184 mg/dL
LIPASE [5]: 13.33 u/L
PHOSPHORUS [5]: 10.2 mg/dL
